The values that follow come from patent publication US20240116845A1, “INDENE COMPOUNDS, PHARMACEUTICAL COMPOSITIONS THEREOF, AND THEIR THERAPEUTIC APPLICATIONS” (NucMito Pharmaceuticals Co., Ltd., priority 2021, published 2024).

A word on the inhibition: it is how much of the control response was suppressed.

What all share (type): cell-based
In assay [1] the test system is alpha-smooth muscle actin (α-SMA). Kind of assay: Inhibition of TGF-β induced expression of alpha-smooth muscle actin in CFSC cells (western blot). Particulars: compound at 10 μM, TGF-β (10 ng/mL), 24 hours. The gist of the method:
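Rat CCl4-treated hepatic stellate (CFSC) cells in serum-free DMEM were given compound at 10 μM plus TGF-β 10 ng/mL for 24 h at 37 °C. α-SMA measured by western blot with β-actin, bands quantified densitometrically. Percent inhibition is the decrease in band intensity versus TGF-β alone.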
Background: In western blotting, separated proteins are transferred to a membrane and probed.

Assay [2] has as its system A431 (epidermoid carcinoma). Kind of assay: Antiproliferative activity, CCK-8 cell viability. Particulars: Homo sapiens, A-431, 72 h, read-out: Inhibition of Cancerous Cells, A431; for inhibition at 3.3 µM: compound concentration of 3.3 μM; for inhibition at 10 µM: compound concentration of 10 μM; for inhibition at 30 µM: compound concentration of 30 μM. The gist of the method:
(§1)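 Cells in DMEM with 10% FBS were treated with compound at 3.3, 10 or 30 μM for 72 h at 37°C. Viability was read by CCK-8 absorbance at 450 nm and expressed relative to DMSO-treated cells. Growth inhibition was binned as ≥50%, 30–50% or <30%.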

Assay [3] has as its system A549 (lung adenocarcinoma). The experiment in a line: Antiproliferative activity, CCK-8 cell viability. To be noted: Homo sapiens, 72 h, read-out: Inhibition of Cancerous Cells, A549; for inhibition at 3.3 µM: compound concentration of 3.3 μM; for inhibition at 10 µM: compound concentration of 10 μM; for inhibition at 30 µM: compound concentration of 30 μM.
Assay [4] concerns B16F10 (malignant melanoma). Kind of assay: Antiproliferative activity, CCK-8 cell viability. Particulars: Mus musculus, B16-F10, 72 h, read-out: Inhibition of Cancerous Cells, B16F10; for inhibition at 3.3 µM: compound concentration of 3.3 μM; for inhibition at 10 µM: compound concentration of 10 μM; for inhibition at 30 µM: compound concentration of 30 μM. The gist of the method: as §1

In a further assay the test system is HeLa (cervical cancer). The experiment in a line: Antiproliferative activity, CCK-8 cell viability. Particulars: Homo sapiens, 72 h, read-out: Inhibition of Cancerous Cells, HELA; for inhibition at 3.3 µM: compound concentration of 3.3 μM; for inhibition at 10 µM: compound concentration of 10 μM; for inhibition at 30 µM: compound concentration of 30 μM.
The test system of the next assay is HepG2 (liver cancer). The experiment in a line: Antiproliferative activity, CCK-8 cell viability. To be noted: Homo sapiens, 72 h, read-out: Inhibition of Cancerous Cells, HepG2; for inhibition at 3.3 µM: compound concentration of 3.3 μM; for inhibition at 10 µM: compound concentration of 10 μM; for inhibition at 30 µM: compound concentration of 30 μM. An outline of the steps: as §1

For assay [5], the system named is MDA-MB-231 (breast cancer). Kind of assay: Antiproliferative activity, CCK-8 cell viability. To be noted: Homo sapiens, 72 h, read-out: Inhibition of Cancerous Cells, MDA-MB-231; for inhibition at 3.3 µM: compound concentration of 3.3 μM; for inhibition at 10 µM: compound concentration of 10 μM; for inhibition at 30 µM: compound concentration of 30 μM. The gist of the method: as §1

In the next assay the test system is SW480 (colon cancer). Kind of assay: Antiproliferative activity, CCK-8 cell viability. Particulars: Homo sapiens, 72 h, read-out: Inhibition of Cancerous Cells, SW480; for inhibition at 3.3 µM: compound concentration of 3.3 μM; for inhibition at 10 µM: compound concentration of 10 μM; for inhibition at 30 µM: compound concentration of 30 μM. An outline of the steps:
as §1

On to `CC1=C(CC(=O)O)c2cc(F)ccc2/C1=C\c1ccc(Oc2ccc(F)cc2)cc1C` [Compound D14, 2-[(1Z)-1-{[2-Methyl-4-(4-fluorophenoxy)phenyl]methylidene}-5-fluoro-2-methyl-1H-inden-3-yl]acetic acid], for which the inhibition at 10 µM was at least 80% in assay [1]; at least 50% in assay [2]; at least 50% in assay [3]; at least 50% in assay [4]; 30 to 50% in the assay with HeLa (cervical cancer); 30 to 50% in the assay with HepG2 (liver cancer). For the same compound, the inhibition at 10 µM (in assay [5]; in the assay with SW480 (colon cancer)) was at least 50% in each case. In addition, the inhibition at 3.3 µM is 30 to 50% in assay [2]; 30 to 50% in assay [3]; at least 50% in assay [4]; below 30% in the assay with HeLa (cervical cancer); 30 to 50% with HepG2 (liver cancer); 30 to 50% in assay [5]. Further, in the assay on SW480 (colon cancer), the inhibition at 3.3 µM was 30 to 50%. For the same compound, the inhibition at 30 µM (in assay [2]; in assay [3]; in assay [4]; with HeLa (cervical cancer); in the assay on HepG2 (liver cancer); in assay [5]) was at least 50% in each case. Moreover, the inhibition at 30 µM in the assay on SW480 (colon cancer) is at least 50%.

Regarding `CC1=C(CC(=O)O)c2cc(F)ccc2/C1=C\c1cccc(COc2ccc(F)c(F)c2)c1` [Compound A20, 2-[(1Z)-1-({3-[(3,4-Difluorophenoxy)methyl]phenyl}methylidene)-5-fluoro-2-methyl-1H-inden-3-yl]acetic acid], the inhibition at 10 µM in assay [1] was at least 80%; in assay [2] it was at least 50%; in assay [3], 30 to 50%; in assay [4], 30 to 50%; in the assay on HeLa (cervical cancer), 30 to 50%; in the assay on HepG2 (liver cancer), at least 50%. Also, the inhibition at 10 µM was at least 50% in assay [5] and 30 to 50% in the assay with SW480 (colon cancer). For the same compound, the inhibition at 3.3 µM in assay [2] was at least 50%; in assay [3] it was below 30%; in assay [4] it was 30 to 50%; with HeLa (cervical cancer), 30 to 50%; in the assay on HepG2 (liver cancer), at least 50%; in assay [5], at least 50%. The inhibition at 3.3 µM in the assay on SW480 (colon cancer) was below 30%. In addition, the inhibition at 30 µM (in assay [2]; in assay [3]; in assay [4]; in the assay with HeLa (cervical cancer); with HepG2 (liver cancer); in assay [5]) was at least 50% throughout. The inhibition at 30 µM in the assay on SW480 (colon cancer) is at least 50%.

`CC1=C(CC(=O)O)c2cc(F)ccc2/C1=C\c1cccc(OCc2ccccc2)c1` [Compound A4, 2-[(1Z)-5-Fluoro-1-(3-(benzyloxy)benzylidene)-2-methyl-1H-inden-3-yl]-acetic acid]: the inhibition at 10 µM in assay [1] was 50 to 80%; in assay [2] it was at least 50%; in assay [3] it was at least 50%; in assay [4] it was at least 50%; in the assay on HeLa (cervical cancer), at least 50%; in the assay on HepG2 (liver cancer) it was below 30%. In addition, the inhibition at 10 µM (in assay [5]; in the assay on SW480 (colon cancer)) was at least 50% in each case. For the same compound, the inhibition at 3.3 µM in assay [2] is 30 to 50%; in assay [3], 30 to 50%; in assay [4], at least 50%; with HeLa (cervical cancer), 30 to 50%; in the assay on HepG2 (liver cancer) it was below 30%; in assay [5] it was at least 50%. In the assay on SW480 (colon cancer), the inhibition at 3.3 µM lay in the range of 30 to 50%. Further, the inhibition at 30 µM (in assay [2]; in assay [3]; in assay [4]; in the assay with HeLa (cervical cancer); with HepG2 (liver cancer); in assay [5]) was at least 50% throughout. In addition, the inhibition at 30 µM with SW480 (colon cancer) was at least 50%.

Regarding `CC1=C(CC(=O)O)c2c(F)cc(F)cc2/C1=C\c1ccc(Oc2ccc(F)cc2)cc1` [Compound D16, 2-[(1Z)-4,6-Difluoro-2-methyl-1-({4-[4-fluorophenoxy]phenyl}methylidene)-1H-inden-3-yl]acetic acid], the inhibition at 10 µM in assay [1] was at least 80%; in assay [2], 30 to 50%; in assay [3], 30 to 50%; in assay [4] it was 30 to 50%; in the assay with HeLa (cervical cancer), 30 to 50%; with HepG2 (liver cancer), 30 to 50%. Besides, the inhibition at 10 µM is at least 50% in assay [5] and 30 to 50% with SW480 (colon cancer). Further, the inhibition at 3.3 µM is below 30% in assay [2]; below 30% in assay [3]; below 30% in assay [4]; below 30% in the assay on HeLa (cervical cancer); 30 to 50% with HepG2 (liver cancer); at least 50% in assay [5]. Further, in the assay with SW480 (colon cancer), the inhibition at 3.3 µM was below 30%. Further, the inhibition at 30 µM was at least 50% in assay [2]; 30 to 50% in assay [3]; at least 50% in assay [4]; at least 50% in the assay with HeLa (cervical cancer); at least 50% with HepG2 (liver cancer); at least 50% in assay [5]. For the same compound, the inhibition at 30 µM in the assay with SW480 (colon cancer) is at least 50%.

For the compound `CC1=C(CC(=O)O)c2cc(F)ccc2/C1=C\c1ccc(CN(C)c2ccccc2)cc1` [Compound A9, 2-[(1Z)-5-Fluoro-2-methyl-1-[(4-{[methyl(phenyl)amino]methyl}phenyl)-methylidene]-1H-inden-3-yl]acetic acid], the inhibition at 10 µM in assay [1] is at least 80%; in assay [2], at least 50%; in assay [3] it was at least 50%; in assay [4], at least 50%; in the assay with HeLa (cervical cancer), 30 to 50%; in the assay with HepG2 (liver cancer), below 30%. The inhibition at 10 µM (in assay [5]; in the assay with SW480 (colon cancer)) was at least 50% throughout. Besides, the inhibition at 3.3 µM in assay [2] is below 30%; in assay [3], at least 50%; in assay [4], at least 50%; in the assay on HeLa (cervical cancer) it was below 30%; with HepG2 (liver cancer), below 30%; in assay [5] it was 30 to 50%. Also, the inhibition at 3.3 µM in the assay on SW480 (colon cancer) is at least 50%. In addition, the inhibition at 30 µM (in assay [2]; in assay [3]; in assay [4]; with HeLa (cervical cancer); in the assay with HepG2 (liver cancer); in assay [5]) was at least 50% throughout. For the same compound, the inhibition at 30 µM with SW480 (colon cancer) was at least 50%.

Take `CC1=C(CC(=O)O)c2cc(F)cc(F)c2/C1=C/c1cccc(Oc2ccccc2)c1` [Compound E7, 2-[(1E)-5,7-Difluoro-1-(3-(phenoxy)benzylidene)-2-methyl-1H-inden-3-yl]-acetic acid]: the inhibition at 10 µM in assay [1] is at least 80%; in assay [2], at least 50%; in assay [3] it was below 30%; in assay [4] it was at least 50%; with HeLa (cervical cancer), at least 50%; in the assay with HepG2 (liver cancer), at least 50%. For the same compound, the inhibition at 10 µM (in assay [5]; with SW480 (colon cancer)) was at least 50% in each case. Further, the inhibition at 3.3 µM in assay [2] was 30 to 50%; in assay [3], below 30%; in assay [4], at least 50%; with HeLa (cervical cancer), 30 to 50%; in the assay with HepG2 (liver cancer), at least 50%; in assay [5], at least 50%. Also, the inhibition at 3.3 µM in the assay with SW480 (colon cancer) is below 30%. Besides, the inhibition at 30 µM (in assay [2]; in assay [3]; in assay [4]; in the assay with HeLa (cervical cancer); with HepG2 (liver cancer); in assay [5]) was at least 50% throughout. Moreover, the inhibition at 30 µM in the assay with SW480 (colon cancer) is at least 50%.
